For data set [1], the target named is T1, human chemokine receptor CCR-3 (Homo sapiens, UniProt P51677).
T1 construct: expressed in transfected cells; host or cells: K562 cells (clone hCCR-3-C1), membranes
T1 sequence (P51677 1-355): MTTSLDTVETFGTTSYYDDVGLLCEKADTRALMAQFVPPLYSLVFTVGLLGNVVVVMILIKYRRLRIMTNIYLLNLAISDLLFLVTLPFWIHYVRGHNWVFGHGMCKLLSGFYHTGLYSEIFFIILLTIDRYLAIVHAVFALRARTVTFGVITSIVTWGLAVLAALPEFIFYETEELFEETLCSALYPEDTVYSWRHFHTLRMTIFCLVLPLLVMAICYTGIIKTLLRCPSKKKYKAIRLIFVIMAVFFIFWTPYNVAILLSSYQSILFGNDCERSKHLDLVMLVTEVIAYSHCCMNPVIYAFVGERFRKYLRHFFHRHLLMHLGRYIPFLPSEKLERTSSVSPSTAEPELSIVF
As to the kind of experiment: CCR-3 receptor binding assay, 125Jodine-eotaxin-1 Scintillation Proximity Assay (SPA). As to the method:
The CCR-3 receptor binding test is based on a K562 cell line (leukemia myelogenic blast cells) transfected with the human chemokine receptor CCR-3 (hCCR-3-C1). The cell membranes were prepared by disrupting the hCCR-3 transfected K562 cells by […] and centrifugation at 40000 g, 4° C. for 1 h. The membranes were re-suspended in the SPA incubation buffer without bovine serum albumin for storage in aliquots at −80° C.
The CCR-3 receptor binding assay with the radioligand ^125Jodine-eotaxin-1 was performed in a Scintillation Proximity Assay (SPA) design. Cell membranes of hCCR-3 C1 cells were diluted in suitable concentrations (0.5-5 ug protein/well) in 96 well microtiter plates (1450-401, Wallac).
The test incubation mixture comprising 60 μl of the membrane suspension, 80 μl of the Wheat Germ Agglutinin coated PVT beads (organic scintillator, Amersham Pharmacia biotech) in a concentration of 0.4 mg and 40 μl of radiolabelled ^125J rhEotaxin (Amersham, IM290) were incubated with 20 μl of the test compound (dissolved in DMSO dilutions) for 2 hours. The SPA incubation buffer contained 25 mM HEPES, 25 mM MgCl2 6×H2O, 1 mM CaCl2 2×H2O and 0.1% bovine serum albumin. Included were controls for specific binding (no displacer added) and non-specific binding by adding unlabelled rhEotaxin (R&D Systems) or a test compound. Bound radioactivity was determined by scintillation counter (Micro Beta “Trilux”, Wallac). Determination of affinity of test compounds (dissociation constant Ki) was calculated by iterative fitting of experimental data using the law of mass action based program “easy sys” (Schittkowski, Num Math 68, 129-142 (1994)).

We go through five compounds from US20050014782A1, “Novel n-(heterobicycloalkanes)-substituted indoles-or heteroderivatives thereof” (Boehringer Ingelheim International GmbH, priority 2003, published 2005).

pKi: −log10 of the molar value. Where a name gives a salt, the structure may show the parent alone.

Take `Cc1nc2cc(F)ccc2n1C1CC2CCC(C1)N2CCCSc1ccc(F)cc1` (centres unmarked) (as salt: HCl) [Example 11, 5-Fluoro-1-{8-[3-(4-fluoro-phenylsulfanyl)-propyl]-8-aza-bicyclo[3.2.1]oct-3-yl}-2-methyl-1H-benzoimidazole]: the melting point (as a rule, the temperature, or range, at which the solid turns liquid) was in the range of 240 to 241 °C.

Regarding `Fc1ccc(SCCCN2C3CCC2CC(n2c(C4CC4)nc4cc(F)ccc42)C3)cc1` (centres unmarked) [Example 9, 2-Cyclopropyl-5-fluoro-1-{8-[3-(4-fluoro-phenylsulfanyl)-propyl]-8-aza-bicyclo[3.2.1]oct-3-yl}1H-benzoimidazole], the pKi – broadly, −log10 of the Ki, conventionally taken in molar units – in data set [1] was 8.00.

Take `CCc1nc2cc(F)ccc2n1C1CC2CCC(C1)N2CCCSc1ccc(F)cc1` (centres unmarked) (as salt: HCl) [Example 10, 2-Ethyl-5-fluoro-1-{8-[3-(4-fluoro-phenylsulfanyl)-propyl]-8-aza-bicyclo[3.2.1]oct-3-yl}-1H-benzoimidazole]: the melting point lay in the range of 127 to 128 °C.

On to `CCc1nc2cc(F)ccc2n1C1CC2CCC(C1)N2CCCSc1ccc(F)cc1` (centres unmarked) [Example 10, 2-Ethyl-5-fluoro-1-{8-[3-(4-fluoro-phenylsulfanyl)-propyl]-8-aza-bicyclo[3.2.1]oct-3-yl}-1H-benzoimidazole], for which the pKi in data set [1] is 8.19.

For the compound `Cc1nc2cc(F)ccc2n1C1CC2CCC(C1)N2CCCSc1ccc(F)cc1` (centres unmarked) [Example 11, 5-Fluoro-1-{8-[3-(4-fluoro-phenylsulfanyl)-propyl]-8-aza-bicyclo[3.2.1]oct-3-yl}-2-methyl-1H-benzoimidazole], in data set [1], the pKi is 7.85.
